What was measured:
h-GABA-A α5β3γ2 [1] = molecular target: T1, h-GABA-A α5β3γ2 (Homo sapiens, UniProt P18507+P31644); assay: [3H]flumazenil competition binding assay on membranes of HEK293 cells expressing GABAA receptors; conditions: Table 1; displacement of [3H]-Flumazenil (0.5 nM), HEK293 cells expressing human receptors, means of two determinations
T1 construct: expressed in transfected cells; host or cells: Xenopus laevis oocytes, micro-injected with subunit RNA
In short: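 Competition for [3H]flumazenil (0.5 nM for α5 subunits) was measured at equilibrium (1 h, 4 °C, Krebs-tris buffer pH 7.5) on transiently transfected HEK293 membranes bearing human α5β3γ2 receptors, with 10^−5 M diazepam defining nonspecific binding. Ki values were derived from filtration and scintillation counting, averaged over duplicates.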

h-GABA-A α5β3γ2 [2] = molecular target: T1, h-GABA-A α5β3γ2; assay: Two-electrode voltage clamp electrophysiology in Xenopus oocytes expressing GABAA receptors (modulation of GABA EC20 current); format: cell-based; conditions: Table 1; for Efficacy (GABA) %: % modulation of GABA EC20 = 100*(Fold increase-1); for Fold increase h-GABA-A α5β3γ2 oocyte: Xenopus oocytes, GABA EC20, test compound at approximatively 30 fold its Ki
In short: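 GABA EC20 currents in human α5β3γ2-expressing Xenopus oocytes, voltage-clamped at −80 mV (room temperature, pH 7.4), measured with and without compound at ~30× Ki applied 0.5 min into the second GABA pulse. % modulation = 100×(fold increase−1), taken from the extremum of the current ratio trace; at least 3 oocytes per concentration.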

SMILES | Ki (h-GABA-A α5β3γ2 [1]) [nM] | Efficacy (GABA) % (h-GABA-A α5β3γ2 [2]) [%] | Fold increase h-GABA-A α5β3γ2 oocyte (h-GABA-A α5β3γ2 [2])
CC(C)OC1CN(c2cnn(Cc3c(-c4ccc(C(F)(F)F)cc4F)nnn3C)c(=O)c2)C1 [Example 70, 2-[[5-[2-fluoro-4-(trifluoromethyl)phenyl]-3-methyl-triazol-4-yl]methyl]-5-(3-isopropoxyazetidin-1-yl)pyridazin-3-one] | 25 | 71 | 1.71
Cn1nnc(-c2ccc(Cl)cc2F)c1Cn1ncc(N2CC(OC3CCC3)C2)cc1=O [Example 49, 2-((5-(4-chloro-2-fluoro-phenyl)-3-methyl-triazol-4-yl)methyl)-5-(3-(cyclobutoxy)azetidin-1-yl)pyridazin-3-one] | 8.3 | 73 | 1.73
Cn1nnc(-c2ccc(Cl)cc2F)c1Cn1ncc(N2CC3(CCCO3)C2)cc1=O [Example 29, 2-[[5-(4-chloro-2-fluoro-phenyl)-3-methyl-triazol-4-yl]methyl]-5-(5-oxa-2-azaspiro[3.4]octan-2-yl)pyridazin-3-one] | 15.2 | 49 | 1.49
CCn1nnc(-c2ccc(Cl)cc2F)c1Cn1ncc(-c2cnn(C3CC3)c2)cc1=O [Example 105, 2-((4-(4-chloro-2-fluorophenyl)-1-ethyl-1H-1,2,3-triazol-5-yl)methyl)-5-(1-cyclopropyl-1H-pyrazol-4-yl)pyridazin-3(2H)-one] | 17.2 | 111 | 2.11
CCn1nnc(-c2ccc(Cl)cc2F)c1Cn1ncc(-c2cnc(OC)c(Cl)c2)cc1=O [Example 110, 2-((4-(4-chloro-2-fluorophenyl)-1-ethyl-1H-1,2,3-triazol-5-yl)methyl)-5-(5-chloro-6-methoxypyridin-3-yl)pyridazin-3(2H)-one] | 8.8 | 139 | 2.39
CCOC1CN(c2cnn(Cc3c(-c4ccc(Cl)cc4F)nnn3CC)c(=O)c2)C1 [Example 91, 2-[[5-(4-chloro-2-fluoro-phenyl)-3-ethyl-triazol-4-yl]methyl]-5-(3-ethoxyazetidin-1-yl)pyridazin-3-one] | 18.2 | 128 | 2.28
Cn1nnc(-c2ccc(Cl)cc2F)c1Cn1ncc(N2CC(Oc3ccncn3)C2)cc1=O [Example 78, 2-[[5-(4-chloro-2-fluoro-phenyl)-3-methyl-triazol-4-yl]methyl]-5-(3-pyrimidin-4-yloxyazetidin-1-yl)pyridazin-3-one] | 11.2 | 106 | 2.06
CCn1nnc(-c2ccc(Cl)cc2F)c1Cn1ncc(N2CC(Oc3cccnn3)C2)cc1=O [Example 102, 2-[[5-(4-chloro-2-fluoro-phenyl)-3-ethyl-triazol-4-yl]methyl]-5-(3-pyridazin-3-yloxyazetidin-1-yl)pyridazin-3-one] | 20.2 | 164 | 2.64
Cn1nnc(-c2ccc(Cl)cc2F)c1Cn1ncc(N2CCN(C(=O)C3CC3)CC2)cc1=O [Example 21, 2-[[5-(4-chloro-2-fluoro-phenyl)-3-methyl-triazol-4-yl]methyl]-5-[4-(cyclopropanc-carbonyl)piperazin-1-yl]pyridazin-3-one] | 8.7 | 140 | 2.4
Cn1nnc(-c2ccc(Cl)cc2F)c1Cn1ncc(N2CC(OC(F)F)C2)cc1=O [Example 53, 2-((5-(4-chloro-2-fluoro-phenyl)-3-methyl-triazol-4-yl)methyl)-5-(3-(difluoromethoxy)azetidin-1-yl)pyridazin-3-one] | 5.4 | 69 | 1.69
Cc1nnn(-c2ccc(Cl)cc2F)c1Cn1ncc(N2CC(OCC(F)(F)F)C2)cc1=O [Example 34, 2-[[3-(4-chloro-2-fluoro-phenyl)-5-methyl-triazol-4-yl]methyl]-5-[3-(2,2,2-trifluoro-ethoxy)azetidin-1-yl]pyridazin-3-one] | 44.2 | 85 | 1.85
Cn1nnc(-c2ccc(Cl)cc2F)c1Cn1ncc(N2CC(Oc3ccc(Cl)nc3)C2)cc1=O [Example 52, 2-[[5-(4-chloro-2-fluoro-phenyl)-3-methyl-triazol-4-yl]methyl]-5-[3-[(6-chloro-3-pyridyl)oxy]azetidin-1-yl]pyridazin-3-one] | 4.1 | 55 | 1.55
CCn1nnc(-c2ccc(Cl)cc2F)c1Cn1ncc(N2CC(OCC(F)F)C2)cc1=O [Example 86, 2-[[5-(4-chloro-2-fluoro-phenyl)-3-ethyl-triazol-4-yl]methyl]-5-[3-(2,2-difluoro-ethoxy)azetidin-1-yl]pyridazin-3-one] | 10.8 | 136 | 2.36
CCOC1CN(c2cnn(Cc3c(C)nnn3-c3ccc(Cl)cc3F)c(=O)c2)C1 [Example 23, 2-((1-(4-chloro-2-fluorophenyl)-4-methyl-1H-1,2,3-triazol-5-yl)methyl)-5-(3-ethoxyazetidin-1-yl)pyridazin-3(2H)-one] | 70 | 75 | 1.75
COC[C@@H]1CCCN1c1cnn(Cc2c(-c3ccc(C)nc3)nnn2C)c(=O)c1 [Example 19, 5-[(2S)-2-(methoxymethyl)pyrrolidin-1-yl]-2-[[3-methyl-5-(6-methyl-3-pyridyl)triazol-4-yl]methyl]pyridazin-3-one] | 10.6 | 137 | 2.37
Cc1nnn(-c2ccc(Cl)cc2F)c1Cn1ncc(N2CCOCC2)cc1=O [Example 4, 2-((3-(4-chloro-2-fluoro-phenyl)-5-methyl-triazol-4-yl)methyl)-5-morpholino-pyridazin-3-one] | 15.6 | 97 | 1.97
Cc1nnn(-c2ccc(Cl)cc2F)c1Cn1ncc(N2CCO[C@@H](C)C2)cc1=O [Example 35, 2-[[3-(4-chloro-2-fluoro-phenyl)-5-methyl-triazol-4-yl]methyl]-5-[(2S)-2-methylmorpholin-4-yl]pyridazin-3-one] | 10.4 | 130 | 2.3
Cn1nnc(-c2ccc(Cl)cc2F)c1Cn1ncc(N2CC3(CC[C@H](F)CO3)C2)cc1=O [Example 126, (S)-2-((4-(4-chloro-2-fluorophenyl)-1-methyl-1H-1,2,3-triazol-5-yl)methyl)-5-(7-fluoro-5-oxa-2-azaspiro[3.5]nonan-2-yl)pyridazin-3(2H)-one] | 17.5 | 61 | 1.61
Cn1nnc(-c2ccc(Cl)cc2F)c1Cn1ncc(N2CC(Oc3cnccn3)C2)cc1=O [Example 73, 2-[[5-(4-chloro-2-fluoro-phenyl)-3-methyl-triazol-4-yl]methyl]-5-(3-pyrazin-2-yloxyazetidin-1-yl)pyridazin-3-one] | 7.7 | 90 | 1.9
CCn1nnc(-c2ccc(Cl)cc2F)c1Cn1ncc(N2CC(OC3CCC3)C2)cc1=O [Example 85, 2-[[5-(4-chloro-2-fluoro-phenyl)-3-ethyl-triazol-4-yl]methyl]-5-[3-(cyclobutoxy)azetidin-1-yl]pyridazin-3-one] | 18.5 | 143 | 2.43
C[C@@H]1CN(c2cnn(Cc3c(-c4ccc(Cl)cc4F)nnn3C)c(=O)c2)C[C@H](C)O1 [Example 3, 2-((5-(4-chloro-2-fluoro-phenyl)-3-methyl-triazol-4-yl)methyl)-5-(cis-2,6-dimethylmorpholin-4-yl)pyridazin-3-one] | 1.2 | 124 | 2.24
CCOc1ccc(-c2cnn(Cc3c(-c4ccc(Cl)cc4F)nnn3C)c(=O)c2)cn1 [Example 103, 2-((5-(4-chloro-2-fluoro-phenyl)-3-methyl-triazol-4-yl)methyl)-5-(6-ethoxy-3-pyridyl)pyridazin-3-one] | 10.4 | 106 | 2.06
CCOC1CN(c2cnn(Cc3c(-c4ccc(Cl)cc4F)nnn3C)c(=O)c2)C1 [Example 27, 2-[[5-(4-chloro-2-fluoro-phenyl)-3-methyl-triazol-4-yl]methyl]-5-(3-ethoxyazetidin-1-yl)pyridazin-3-one] | 8.2 | 69 | 1.69
Cn1nnc(-c2ccc(Cl)cc2F)c1Cn1ncc(-c2cccc(C#N)n2)cc1=O [Example 107, 6-(1-((5-(4-chloro-2-fluoro-phenyl)-3-methyl-triazol-4-yl)methyl)-6-oxo-pyridazin-4-yl)pyridine-2-carbonitrile] | 9 | 234 | 3.34
CCOc1ncc(-c2cnn(Cc3c(-c4ccc(Cl)cc4F)nnn3C)c(=O)c2)cc1C [Example 66, 2-((5-(4-chloro-2-fluoro-phenyl)-3-methyl-triazol-4-yl)methyl)-5-(6-ethoxy-5-methyl-3-pyridyl)pyridazin-3-one] | 19 | 143 | 2.43

From patent US20230135093A1, “TRIAZOLYL DERIVATIVES AS GABA A ALPHA5 PAM” (Hoffmann-La Roche Inc., priority 2020, published 2023)
